Values of other authors, collected in patent publication US12016830B2, “Pharmaceutical compositions comprising isotretinoin and processes for preparation and uses thereof” (Acrotech Biopharma Inc., priority 2022, dated 2024).

Settings: background statement

oral bioavailability: low oral bioavailability
Structure (SMILES): CC1=C(/C=C/C(C)=C/C=C/C(C)=C\C(=O)O)C(C)(C)CCC1 [Isotretinoin, 13-cis retinoic acid]
